Source: patent publication US20240018123A1, “COMPOUND FOR INHIBITING OR DISINTEGRATING ANDROGEN RECEPTOR, AND PHARMACEUTICAL USE THEREOF” (KOREA RESEARCH INSTITUTE OF CHEMICAL TECHNOLOGY, priority 2020, published 2024)
Like-named read-outs stand apart in the source and are kept apart here.

What was measured:
Androgen receptor (AR) = molecular target: T1, Androgen receptor (AR) (Homo sapiens, UniProt P10275, T878A); assay: Assessment of AR proteolytic activity (Western blotting of LNCap cell lysates); assay type: cell-based; conditions: 24 hours of treatment, Western blotting quantified with Image J; for remaining activity at 1 µM: read-out: Degradation (1 μM treated in LNCaP, % AR remaining)
T1 construct: 5.5×10^5 LNCap cells were injected into each well of a 6-well plate; endogenous in cells; host or cells: LNCaP
T1 sequence (P10275 1-920 T878A): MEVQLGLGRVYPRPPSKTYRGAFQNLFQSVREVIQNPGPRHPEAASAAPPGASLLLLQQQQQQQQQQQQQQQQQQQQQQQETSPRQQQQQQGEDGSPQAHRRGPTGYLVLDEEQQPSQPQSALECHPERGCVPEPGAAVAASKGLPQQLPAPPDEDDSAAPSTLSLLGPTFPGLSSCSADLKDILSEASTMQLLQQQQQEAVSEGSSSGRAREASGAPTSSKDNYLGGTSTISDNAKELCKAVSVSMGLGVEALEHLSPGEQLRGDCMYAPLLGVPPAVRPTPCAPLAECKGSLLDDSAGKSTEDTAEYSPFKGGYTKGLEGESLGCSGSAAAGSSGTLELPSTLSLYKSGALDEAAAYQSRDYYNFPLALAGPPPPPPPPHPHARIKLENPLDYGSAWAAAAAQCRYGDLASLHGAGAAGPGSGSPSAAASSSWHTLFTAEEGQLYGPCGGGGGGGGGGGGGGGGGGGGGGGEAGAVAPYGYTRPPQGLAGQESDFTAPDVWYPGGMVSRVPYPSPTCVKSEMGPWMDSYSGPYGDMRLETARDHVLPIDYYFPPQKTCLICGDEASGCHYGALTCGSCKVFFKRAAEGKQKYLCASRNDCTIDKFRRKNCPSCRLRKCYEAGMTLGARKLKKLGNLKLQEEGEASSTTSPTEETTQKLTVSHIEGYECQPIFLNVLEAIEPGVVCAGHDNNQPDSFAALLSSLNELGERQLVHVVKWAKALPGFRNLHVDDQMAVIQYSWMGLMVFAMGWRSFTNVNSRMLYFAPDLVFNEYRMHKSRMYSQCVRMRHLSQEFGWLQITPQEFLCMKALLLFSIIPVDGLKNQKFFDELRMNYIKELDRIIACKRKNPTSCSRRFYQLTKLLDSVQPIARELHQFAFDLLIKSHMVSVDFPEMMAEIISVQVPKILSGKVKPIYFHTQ
Method in brief: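 LNCap cells seeded at 5.5×10^5 per well and treated with compound for 24 hours. Lysates prepared in RIPA buffer (pH 7.5, with protease inhibitors). AR protein levels assessed by Western blot with densitometric quantification.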

VCaP cells = assay: Cytotoxicity assessment (Cell-titer-glo cell viability), VCaP
Method: In order to evaluate the androgen receptor (AR) cytotoxicity of the compounds according to the present invention, the following experiment was conducted. Specifically, 1.5×10^3 (LNCaP) or 4×10^3 (VCaP, 22RV1), respectively, of LNCaP, VCaP, and 22RV1 cells were injected into each well of a 96-well plate. The next day, each well was treated with the compound at a final concentration of 3 nM, 10 nM, 30 nM, 100 nM, 300 nM, 1 μM, 3 μM, and 10 μM. […] After 6 days of treatment, Cell-titer-glo (promega) was treated and reacted for 10 minutes, and cell viability was measured with a multimode plate reader (PerkinElmer, Inc.), and the change was quantified compared to when DMSO was treated.

[1] = read-out: VCaP (CC50), VCaP cells, 6 days of treatment, Cell-titer-glo, vs DMSO
[2] = Homo sapiens, VCaP, 144 h, read-out: VCaP (CC50, μM)

**Q.** Which results are given for `CC1(C)C(NC(=O)c2ccc(N3CCN(CCCOC4CCN(C(=O)C5CCN(c6ccc7nnn(C8CCC(=O)NC8=O)c(=O)c7c6)CC5)CC4)CC3)cc2)C(C)(C)C1Oc1ccc(C#N)c(Cl)c1` (centres unmarked) [Example 35, N-((1r,3r)-3-(3-chloro-4-cyanophenoxy)-2,2,4,4-tetramethylcyclobutyl)-4-(4-(3-((1-(1-(3-(2,6-dioxopiperidin-3-yl)-4-oxo-3,4-dihydrobenzo[d][1,2,3]triazin-6-yl)piperidine-4-carbonyl)piperidin-4-yl)oxy)propyl)piperazin-1-yl)benzamide]?
**A.** Degradation (1 μM treated in LNCaP, % AR remaining) (Androgen receptor (AR)): 6.4%; CC50 (VCaP cells; [1]): 0.0525 µM

**Q.** `CC1(C)C(NC(=O)c2ccc(N3CCN(CCCOC4CCN(C(=O)CNc5ccc6nnn(C7CCC(=O)NC7=O)c(=O)c6c5)CC4)CC3)cc2)C(C)(C)C1Oc1ccc(C#N)c(Cl)c1` (centres unmarked) [Example 37, N-((1r,3r)-3-(3-chloro-4-cyanophenoxy)-2,2,4,4-tetramethylcyclobutyl)-4-(4-(3-((1-((3-(2,6-dioxopiperidin-3-yl)-4-oxo-3,4-dihydrobenzo[d][1,2,3]triazin-6-yl)glycyl)piperidin-4-yl)oxy)propyl)piperazin-1-yl)benzamide] was tested. Which “Degradation (1 μM treated in LNCaP, % AR remaining)” value (Androgen receptor (AR)) did it give?
**A.** Its value is 14.9%.

**Q.** What about the CC50 (VCaP cells; [1]) of the same compound?
**A.** The CC50 was 0.0291 µM.

**Q.** What does the source list for `CC1(C)[C@H](NC(=O)c2ccc(N3CCN(C(=O)CNc4ccc5nnn(C6CCC(=O)NC6=O)c(=O)c5c4)CC3)cc2)C(C)(C)[C@H]1Oc1ccc(C#N)c(Cl)c1` (some centres unmarked) [Example 40, N-((1r,3r)-3-(3-chloro-4-cyanophenoxy)-2,2,4,4-tetramethylcyclobutyl)-4-(4-((3-(2,6-dioxopiperidin-3-yl)-4-oxo-3,4-dihydrobenzo[d][1,2,3]triazin-6-yl)glycyl)piperazin-1-yl)benzamide]?
**A.** Degradation (1 μM treated in LNCaP, % AR remaining) (Androgen receptor (AR)): 19.7%; CC50 (VCaP cells; [1]): 0.0243 µM

**Q.** Which results are given for `CC1(C)[C@H](NC(=O)c2ccc(N3CCN(C(=O)C4CCN(c5ccc6nnn(C7CCC(=O)NC7=O)c(=O)c6c5)CC4)CC3)cc2)C(C)(C)[C@H]1Oc1ccc(C#N)c(Cl)c1` (some centres unmarked) [Example 42, N-((1r,3r)-3-(3-chloro-4-cyanophenoxy)-2,2,4,4-tetramethylcyclobutyl)-4-(4-(1-(3-(2,6-dioxopiperidin-3-yl)-4-oxo-3,4-dihydrobenzo[d][1,2,3]triazin-6-yl)piperidine-4-carbonyl)piperazin-1-yl)benzamide]?
**A.** Degradation (1 μM treated in LNCaP, % AR remaining) (Androgen receptor (AR)): 10%; CC50 (VCaP cells; [1]): 0.0494 µM

**Q.** For `CC1(C)C(NC(=O)c2ccc(N3CCN(CCCC4CCN(C(=O)C5CCN(c6ccc7nnn(C8CCC(=O)NC8=O)c(=O)c7c6)CC5)CC4)CC3)cc2)C(C)(C)C1Oc1ccc(C#N)c(Cl)c1` (centres unmarked) [Example 46, N-((1r,3r)-3-(3-chloro-4-cyanophenoxy)-2,2,4,4-tetramethylcyclobutyl)-4-(4-(3-(1-(1-(3-(2,6-dioxopiperidin-3-yl)-4-oxo-3,4-dihydrobenzo[d][1,2,3]triazin-6-yl)piperidine-4-carbonyl)piperidin-4-yl)propyl)piperazin-1-yl)benzamide], which “Degradation (1 μM treated in LNCaP, % AR remaining)” value (Androgen receptor (AR)) is on record?
**A.** The value was 15.6%.

**Q.** And the CC50 (VCaP cells; [1])?
**A.** The CC50 was 0.0522 µM.

**Q.** Which results are given for `CC1(C)[C@H](NC(=O)c2ccc(N3CCC(CN4CCN(C(=O)C5CCN(c6ccc7nnn(C8CCC(=O)NC8=O)c(=O)c7c6)CC5)CC4)CC3)cc2)C(C)(C)[C@H]1Oc1ccc(C#N)c(Cl)c1` (some centres unmarked) [Example 49, N-((1r,3r)-3-(3-chloro-4-cyanophenoxy)-2,2,4,4-tetramethylcyclobutyl)-4-(4-((4-(1-(3-(2,6-dioxopiperidin-3-yl)-4-oxo-3,4-dihydrobenzo[d][1,2,3]triazin-6-yl)piperidine-4-carbonyl)piperazin-1-yl)methyl)piperidin-1-yl)benzamide]?
**A.** remaining activity at 1 µM (Androgen receptor (AR)): 8.6%; CC50 (VCaP cells; [2]): 0.0678 µM

**Q.** With `CC1(C)[C@H](NC(=O)c2ccc(C3CCN(CC4CCN(c5ccc6nnn(C7CCC(=O)NC7=O)c(=O)c6c5)CC4)CC3)cc2)C(C)(C)[C@H]1Oc1ccc(C#N)c(Cl)c1` (some centres unmarked) [Example 50, N-((1r,3r)-3-(3-chloro-4-cyanophenoxy)-2,2,4,4-tetramethylcyclobutyl)-4-(1-((1-(3-(2,6-dioxopiperidin-3-yl)-4-oxo-3,4-dihydrobenzo[d][1,2,3]triazin-6-yl)piperidin-4-yl)methyl)piperidin-4-yl)benzamide] as the compound, how does the remaining activity at 1 µM (Androgen receptor (AR)) read?
**A.** Its remaining activity at 1 µM is 6.8%.

**Q.** And the CC50 (VCaP cells; [2])?
**A.** Its CC50 is 0.223 µM.

**Q.** How did the “Degradation (1 μM treated in LNCaP, % AR remaining)” value (Androgen receptor (AR)) turn out when `CC1(C)[C@H](NC(=O)c2ccc(C3CCN(CC4CCN(C(=O)C5CCN(c6ccc7nnn(C8CCC(=O)NC8=O)c(=O)c7c6)CC5)CC4)CC3)cc2)C(C)(C)[C@H]1Oc1ccc(C#N)c(Cl)c1` (some centres unmarked) [Example 51, N-((1r,3r)-3-(3-chloro-4-cyanophenoxy)-2,2,4,4-tetramethylcyclobutyl)-4-(1-((1-(1-(3-(2,6-dioxopiperidin-3-yl)-4-oxo-3,4-dihydrobenzo[d][1,2,3]triazin-6-yl)piperidine-4-carbonyl)piperidin-4-yl)methyl)piperidin-4-yl)benzamide] was run?
**A.** The value was 10.4%.

**Q.** What about the CC50 (VCaP cells; [1]) of the same compound?
**A.** The CC50 was 0.228 µM.

**Q.** `CC1(C)[C@H](NC(=O)c2ccc(C3CCN(CC4CCN(C(=O)C5CCN(c6ccc7nnn(C8CCC(=O)NC8=O)c(=O)c7c6)CC5)CC4)CC3)cc2)C(C)(C)[C@H]1Oc1ccc(C#N)c(Cl)c1` (some centres unmarked) [Example 52, N-((1r,3r)-3-(3-chloro-4-cyanophenoxy)-2,2,4,4-tetramethylcyclobutyl)-4-(1-((1-(1-(3-(2,6-dioxopiperidin-3-yl)-4-oxo-3,4-dihydrobenzo[d][1,2,3]triazin-6-yl)piperidine-4-carbonyl)piperidin-4-yl)methyl)piperidin-4-yl)benzamide] was tested. Which “Degradation (1 μM treated in LNCaP, % AR remaining)” value (Androgen receptor (AR)) did it give?
**A.** Its value is 32.2%.

**Q.** And the CC50 (VCaP cells; [1])?
**A.** Its CC50 is 0.0594 µM.

**Q.** How did the CC50 (VCaP cells; [1]) turn out when `CC1(C)C(NC(=O)c2ccc(-n3cc(CCNC(=O)C4CN(c5ccc6nnn(C7CCC(=O)NC7=O)c(=O)c6c5)C4)nn3)cc2)C(C)(C)C1Oc1ccc(C#N)c(Cl)c1` (centres unmarked) [Example 155, N-(2-(1-(4-(((1r,3r)-3-(3-chloro-4-cyanophenoxy)-2,2,4,4-tetramethylcyclobutyl)carbamoyl)phenyl)-1H-1,2,3-triazol-4-yl)ethyl)-1-(3-(2,6-dioxopiperidin-3-yl)-4-oxo-3,4-dihydrobenzo[d][1,2,3]triazin-6-yl)azetidine-3-carboxamide] was run?
**A.** The CC50 was 0.177 µM.

**Q.** How did the CC50 (VCaP cells; [1]) turn out when `CC1(C)C(NC(=O)c2ccc(-n3cc(CCNC(=O)CNc4ccc5nnn(C6CCC(=O)NC6=O)c(=O)c5c4)nn3)cc2)C(C)(C)C1Oc1ccc(C#N)c(Cl)c1` (centres unmarked) [Example 156, N-((1r,3r)-3-(3-chloro-4-cyanophenoxy)-2,2,4,4-tetramethylcyclobutyl)-4-(4-(2-(2-((3-(2,6-dioxopiperidin-3-yl)-4-oxo-3,4-dihydrobenzo[d][1,2,3]triazin-6-yl)amino)acetamido)ethyl)-1H-1,2,3-triazol-1-yl)benzamide] was run?
**A.** Its CC50 is 0.936 µM.

**Q.** `CC1(C)C(NC(=O)c2ccc(-n3cc(CCOCCOCCNC(=O)C4CN(c5ccc6nnn(C7CCC(=O)NC7=O)c(=O)c6c5)C4)nn3)cc2)C(C)(C)C1Oc1ccc(C#N)c(Cl)c1` (centres unmarked) [Example 157, N-(2-(2-(2-(1-(4-(((1r,3r)-3-(3-chloro-4-cyanophenoxy)-2,2,4,4-tetramethylcyclobutyl)carbamoyl)phenyl)-1H-1,2,3-triazol-4-yl)ethoxy)ethoxy)ethyl)-1-(3-(2,6-dioxopiperidin-3-yl)-4-oxo-3,4-dihydrobenzo[d][1,2,3]triazin-6-yl)azetidine-3-carboxamide] was tested. Which CC50 (VCaP cells; [1]) did it give?
**A.** Its CC50 is 0.0321 µM.

**Q.** For `CC1(C)C(NC(=O)c2ccc(-n3cc(CCOCCOCCNC(=O)C4CCN(c5ccc6nnn(C7CCC(=O)NC7=O)c(=O)c6c5)CC4)nn3)cc2)C(C)(C)C1Oc1ccc(C#N)c(Cl)c1` (centres unmarked) [Example 158, N-(2-(2-(2-(1-(4-(((1r,3r)-3-(3-chloro-4-cyanophenoxy)-2,2,4,4-tetramethylcyclobutyl)carbamoyl)phenyl)-1H-1,2,3-triazol-4-yl)ethoxy)ethoxy)ethyl)-1-(3-(2,6-dioxopiperidin-3-yl)-4-oxo-3,4-dihydrobenzo[d][1,2,3]triazin-6-yl)piperidine-4-carboxamide], which CC50 (VCaP cells; [1]) is on record?
**A.** The CC50 was 0.0387 µM.

**Q.** For `CC1(C)C(NC(=O)c2ccc(-n3cc(CCOCCOCCNC(=O)CNc4ccc5nnn(C6CCC(=O)NC6=O)c(=O)c5c4)nn3)cc2)C(C)(C)C1Oc1ccc(C#N)c(Cl)c1` (centres unmarked) [Example 159, N-((1r,3r)-3-(3-chloro-4-cyanophenoxy)-2,2,4,4-tetramethylcyclobutyl)-4-(4-(2-(2-(2-(2-((3-(2,6-dioxopiperidin-3-yl)-4-oxo-3,4-dihydrobenzo[d][1,2,3]triazin-6-yl)amino)acetamido)ethoxy)ethoxy)ethyl)-1H-1,2,3-triazol-1-yl)benzamide], which CC50 (VCaP cells; [1]) is on record?
**A.** The CC50 was 0.109 µM.
